According to ChEMBL document CHEMBL3046170, “Docking, synthesis, and pharmacological investigation of novel substituted thiazole derivatives as non-carboxylic, anti-inflammatory, and analgesic agents” (Med Chem Res, 2013):

Tests used:
Rattus norvegicus [1] = test: Anti-inflammatory activity in Wistar albino Rattus norvegicus (rat) assessed as inhibition of carrageenan-induced paw edema at 25 mg/kg, po administered 1 hr prior to carrageenan-challenge measured after 3 hr by plethysmometer; assay type: functional
Rattus norvegicus [2] = test: Anti-inflammatory activity in carrageenan-induced paw edema Wistar albino Rattus norvegicus (rat) model assessed as change in paw volume at 25 mg/kg, po administered 1 hr prior to carrageenan-challenge measured after 1 hr by plethysmometer (reference value: 0.900 +/-0.03 ml); assay type: functional
Rattus norvegicus [3] = test: Anti-inflammatory activity in Wistar albino Rattus norvegicus (rat) assessed as inhibition of carrageenan-induced paw edema at 25 mg/kg, po administered 1 hr prior to carrageenan-challenge measured after 2 hr by plethysmometer; assay type: functional
Rattus norvegicus [4] = test: Anti-inflammatory activity in carrageenan-induced paw edema Wistar albino Rattus norvegicus (rat) model assessed as change in paw volume at 25 mg/kg, po administered 1 hr prior to carrageenan-challenge measured after 2 hr by plethysmometer (reference value: 1.110 +/-0.07 ml); assay type: functional
Mus musculus = test: Analgesic activity in Albino Mus musculus (mouse) assessed as inhibition of acetic acid-induced abdominal writhings at 25 mg/kg, po administered 50 min prior to acetic acid injection measured after 10 min; assay type: functional; conditions: Abdomen
Rattus norvegicus [5] = test: Anti-inflammatory activity in carrageenan-induced paw edema Wistar albino Rattus norvegicus (rat) model assessed as change in paw volume at 25 mg/kg, po administered 1 hr prior to carrageenan-challenge measured after 3 hr by plethysmometer (reference value: 1.200 +/-0.08 ml); assay type: functional
Rattus norvegicus [6] = test: Anti-inflammatory activity in Wistar albino Rattus norvegicus (rat) assessed as inhibition of carrageenan-induced paw edema at 25 mg/kg, po administered 1 hr prior to carrageenan-challenge measured after 1 hr by plethysmometer; assay type: functional
Rattus norvegicus [7] = test: Gastrointestinal toxicity in Wistar albino Rattus norvegicus (rat) stress model assessed as ulcerogenicity index at 25 mg/kg/day, po for 4 days measured on day 5 relative to diclofenac sodium; assay type: organism-based; design: route oral; conditions: in vivo, 96 h
Rattus norvegicus [8] = test: Gastrointestinal toxicity in Wistar albino Rattus norvegicus (rat) stress model assessed as ulcerogenicity index at 25 mg/kg/day, po for 4 days measured on day 5; assay type: organism-based; design: route oral; conditions: in vivo, 96 h

Question: How did the inhibition in vivo at 25 mg/kg (Rattus norvegicus [1]) turn out when `Nn1c(-c2csc(-c3ccccc3)n2)n[nH]c1=O` was run?
Answer: 19%

Question: And the Activity (Rattus norvegicus [2])?
Answer: 0.844 mL

Question: What about the inhibition in vivo at 25 mg/kg (Rattus norvegicus [3]) of the same compound?
Answer: 23.1%

Question: And the Activity (Rattus norvegicus [4])?
Answer: 0.979 mL

Question: And the inhibition in vivo at 25 mg/kg (Mus musculus)?
Answer: 19.7%

Question: What about the Activity (Rattus norvegicus [5]) of the same compound?
Answer: 1.074 mL

Question: What about the inhibition in vivo at 25 mg/kg (Rattus norvegicus [6]) of the same compound?
Answer: 15.2%

Question: How did the Activity (Rattus norvegicus [7]) turn out when `Sc1nnc(-c2csc(-c3ccccc3)n2)o1` was run?
Answer: 10%

Question: What about the inhibition in vivo at 25 mg/kg (Rattus norvegicus [1]) of the same compound?
Answer: 50.8%

Question: What about the Activity (Rattus norvegicus [2]) of the same compound?
Answer: 0.735 mL

Question: And the inhibition in vivo at 25 mg/kg (Rattus norvegicus [3])?
Answer: 53.8%

Question: What about the Activity (Rattus norvegicus [4]) of the same compound?
Answer: 0.78 mL

Question: What about the inhibition in vivo at 25 mg/kg (Mus musculus) of the same compound?
Answer: 58.1%

Question: And the Activity (Rattus norvegicus [5])?
Answer: 0.84 mL

Question: And the inhibition in vivo at 25 mg/kg (Rattus norvegicus [6])?
Answer: 37.9%

Question: What about the UI (Rattus norvegicus [8]) of the same compound?
Answer: 0.52

Question: How did the inhibition in vivo at 25 mg/kg (Rattus norvegicus [1]) turn out when `c1ccc(-c2nc(-c3nnc(SCCN4CCOCC4)o3)cs2)cc1` was run?
Answer: 21.6%

Question: And the Activity (Rattus norvegicus [2])?
Answer: 0.864 mL

Question: What about the inhibition in vivo at 25 mg/kg (Rattus norvegicus [3]) of the same compound?
Answer: 23.5%

Question: And the Activity (Rattus norvegicus [4])?
Answer: 0.995 mL

Question: What about the inhibition in vivo at 25 mg/kg (Mus musculus) of the same compound?
Answer: 21.8%

Question: And the Activity (Rattus norvegicus [5])?
Answer: 1.076 mL

Question: What about the inhibition in vivo at 25 mg/kg (Rattus norvegicus [6]) of the same compound?
Answer: 14.5%

Question: With `CN(C)CCSc1nnc(-c2csc(-c3ccccc3)n2)o1` as the compound, how does the inhibition in vivo at 25 mg/kg (Rattus norvegicus [1]) read?
Answer: 25.9%

Question: And the Activity (Rattus norvegicus [2])?
Answer: 0.787 mL

Question: What about the inhibition in vivo at 25 mg/kg (Rattus norvegicus [3]) of the same compound?
Answer: 31.1%

Question: And the Activity (Rattus norvegicus [4])?
Answer: 0.904 mL

Question: What about the inhibition in vivo at 25 mg/kg (Mus musculus) of the same compound?
Answer: 18.6%

Question: And the Activity (Rattus norvegicus [5])?
Answer: 0.999 mL

Question: And the inhibition in vivo at 25 mg/kg (Rattus norvegicus [6])?
Answer: 22.7%

Question: Which Activity (Rattus norvegicus [7]) does the source give for `S=c1oc(-c2csc(-c3ccccc3)n2)nn1CN1CCCCC1` here?
Answer: 10%

Question: What about the inhibition in vivo at 25 mg/kg (Rattus norvegicus [1]) of the same compound?
Answer: 55.5%

Question: And the Activity (Rattus norvegicus [2])?
Answer: 0.764 mL

Question: What about the inhibition in vivo at 25 mg/kg (Rattus norvegicus [3]) of the same compound?
Answer: 57.4%

Question: What about the Activity (Rattus norvegicus [4]) of the same compound?
Answer: 0.812 mL

Question: What about the inhibition in vivo at 25 mg/kg (Mus musculus) of the same compound?
Answer: 58.7%

Question: And the Activity (Rattus norvegicus [5])?
Answer: 0.862 mL

Question: What about the inhibition in vivo at 25 mg/kg (Rattus norvegicus [6]) of the same compound?
Answer: 44.8%

Question: What about the UI (Rattus norvegicus [8]) of the same compound?
Answer: 0.54

Question: For `CCOC(=O)c1cnn(C(=O)c2csc(-c3ccccc3)n2)c1N`, which Activity (Rattus norvegicus [7]) is on record?
Answer: 10%

Question: And the inhibition in vivo at 25 mg/kg (Rattus norvegicus [1])?
Answer: 60.3%

Question: And the Activity (Rattus norvegicus [2])?
Answer: 0.721 mL

Question: What about the inhibition in vivo at 25 mg/kg (Rattus norvegicus [3]) of the same compound?
Answer: 63%

Question: What about the Activity (Rattus norvegicus [4]) of the same compound?
Answer: 0.74 mL

Question: And the inhibition in vivo at 25 mg/kg (Mus musculus)?
Answer: 61.2%

Question: What about the Activity (Rattus norvegicus [5]) of the same compound?
Answer: 0.79 mL

Question: And the inhibition in vivo at 25 mg/kg (Rattus norvegicus [6])?
Answer: 45.1%

Question: And the UI (Rattus norvegicus [8])?
Answer: 0.6

Question: Which results are given for `Nc1cc(-c2ccccc2)nn1C(=O)c1csc(-c2ccccc2)n1`?
Answer: Activity (Rattus norvegicus [7]): 10%; inhibition in vivo at 25 mg/kg (Rattus norvegicus [1]): 55.2%; Activity (Rattus norvegicus [2]): 0.851 mL; inhibition in vivo at 25 mg/kg (Rattus norvegicus [3]): 60.5%; Activity (Rattus norvegicus [4]): 0.873 mL; inhibition in vivo at 25 mg/kg (Mus musculus): 60.1%; Activity (Rattus norvegicus [5]): 0.942 mL; inhibition in vivo at 25 mg/kg (Rattus norvegicus [6]): 42.1%; UI (Rattus norvegicus [8]): 0.62

Question: With `c1ccc(-c2nc(-c3nnn[nH]3)cs2)cc1` as the compound, how does the inhibition in vivo at 25 mg/kg (Rattus norvegicus [1]) read?
Answer: 40.4%

Question: What about the Activity (Rattus norvegicus [2]) of the same compound?
Answer: 0.825 mL

Question: And the inhibition in vivo at 25 mg/kg (Rattus norvegicus [3])?
Answer: 38.1%

Question: And the Activity (Rattus norvegicus [4])?
Answer: 0.885 mL

Question: What about the inhibition in vivo at 25 mg/kg (Mus musculus) of the same compound?
Answer: 16.5%

Question: And the Activity (Rattus norvegicus [5])?
Answer: 0.935 mL

Question: What about the inhibition in vivo at 25 mg/kg (Rattus norvegicus [6]) of the same compound?
Answer: 30.8%

Question: What does the source list for `c1ccc(-c2nc(-c3nnco3)cs2)cc1`?
Answer: inhibition in vivo at 25 mg/kg (Rattus norvegicus [1]): 27%; Activity (Rattus norvegicus [2]): 0.842 mL; inhibition in vivo at 25 mg/kg (Rattus norvegicus [3]): 31.5%; Activity (Rattus norvegicus [4]): 0.962 mL; inhibition in vivo at 25 mg/kg (Mus musculus): 18.1%; Activity (Rattus norvegicus [5]): 1.052 mL; inhibition in vivo at 25 mg/kg (Rattus norvegicus [6]): 24.2%

Question: `Nc1nnc(-c2csc(-c3ccccc3)n2)o1` was tested. Which inhibition in vivo at 25 mg/kg (Rattus norvegicus [1]) did it give?
Answer: 21.4%

Question: What about the Activity (Rattus norvegicus [2]) of the same compound?
Answer: 0.88 mL

Question: And the inhibition in vivo at 25 mg/kg (Rattus norvegicus [3])?
Answer: 25.5%

Question: And the Activity (Rattus norvegicus [4])?
Answer: 1.012 mL

Question: And the inhibition in vivo at 25 mg/kg (Mus musculus)?
Answer: 20.3%

Question: What about the Activity (Rattus norvegicus [5]) of the same compound?
Answer: 1.105 mL

Question: And the inhibition in vivo at 25 mg/kg (Rattus norvegicus [6])?
Answer: 18.2%

Question: Which results are given for `O=c1[nH]nc(-c2csc(-c3ccccc3)n2)o1`?
Answer: Activity (Rattus norvegicus [7]): 10%; inhibition in vivo at 25 mg/kg (Rattus norvegicus [1]): 48.4%; Activity (Rattus norvegicus [2]): 0.825 mL; inhibition in vivo at 25 mg/kg (Rattus norvegicus [3]): 49.1%; Activity (Rattus norvegicus [4]): 0.885 mL; inhibition in vivo at 25 mg/kg (Mus musculus): 42.2%; Activity (Rattus norvegicus [5]): 0.935 mL; inhibition in vivo at 25 mg/kg (Rattus norvegicus [6]): 34.8%; UI (Rattus norvegicus [8]): 0.44

Question: With `O=C([O-])Cc1ccccc1Nc1c(Cl)cccc1Cl.[Na+]` [DICLOFENAC SODIUM] as the compound, how does the inhibition in vivo at 25 mg/kg (Rattus norvegicus [1]) read?
Answer: 54.9%

Question: What about the Activity (Rattus norvegicus [2]) of the same compound?
Answer: 0.762 mL

Question: What about the inhibition in vivo at 25 mg/kg (Rattus norvegicus [3]) of the same compound?
Answer: 56.7%

Question: What about the Activity (Rattus norvegicus [4]) of the same compound?
Answer: 0.8 mL

Question: And the inhibition in vivo at 25 mg/kg (Mus musculus)?
Answer: 58%

Question: And the Activity (Rattus norvegicus [5])?
Answer: 0.85 mL

Question: What about the inhibition in vivo at 25 mg/kg (Rattus norvegicus [6]) of the same compound?
Answer: 40.6%

Question: And the UI (Rattus norvegicus [8])?
Answer: 4.67
